Measured values: patent US20250129069A1, “TRIAZOLO WRN INHIBITORS” (Nimbus Wadjet, Inc., priority 2023, published 2025)

Key:
[1] = biological target: human Werner helicase (WRN, amino acids 517-1235 with L1074F point mutation) (Homo sapiens (Human), UniProt Q14191, L1074F); test: WRN (BV08) ADP-Glo assay; type: biochemical; conditions: human WRN (aa 517-1235, L1074F), read-out: ADP-Glo_hWRN_IC50
How it was run: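 ADP-Glo luminescence read after 60 min, 25 °C reaction of 0.15 nM WRN (517-1235, L1074F, Sf9-expressed, tag removed) with 0.1 nM DNA duplex and 5 μM ATP, following 15 min compound preincubation; 20 mM Bicine pH 7.5, 1% DMSO. IC50 from 3- or 4-parameter fit of % inhibition.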

[2] = test system: p21 induction in HCT 116 cells; test: p21 induction in cells (In-Cell Western, p21/GAPDH ratio); type: cell-based; conditions: Homo sapiens, 24 h compound incubation, read-out: p21_EC50
How it was run: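 EC50 values come from nonlinear fits of percent activation, defined by the 800/700 nm p21-to-GAPDH ratio scaled between DMSO (low) and internal WRN inhibitor (high) controls. In-Cell Western read after 24 h compound exposure of HCT 116 cells at 37° C. Duplicate 11-point series, 2-fold steps, usually starting at 10 μM.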

Chain of human Werner helicase (WRN, amino acids 517-1235 with L1074F point mutation) (Q14191 other isoform, or with tags, fused parts or gaps L1074F (already in the parent)): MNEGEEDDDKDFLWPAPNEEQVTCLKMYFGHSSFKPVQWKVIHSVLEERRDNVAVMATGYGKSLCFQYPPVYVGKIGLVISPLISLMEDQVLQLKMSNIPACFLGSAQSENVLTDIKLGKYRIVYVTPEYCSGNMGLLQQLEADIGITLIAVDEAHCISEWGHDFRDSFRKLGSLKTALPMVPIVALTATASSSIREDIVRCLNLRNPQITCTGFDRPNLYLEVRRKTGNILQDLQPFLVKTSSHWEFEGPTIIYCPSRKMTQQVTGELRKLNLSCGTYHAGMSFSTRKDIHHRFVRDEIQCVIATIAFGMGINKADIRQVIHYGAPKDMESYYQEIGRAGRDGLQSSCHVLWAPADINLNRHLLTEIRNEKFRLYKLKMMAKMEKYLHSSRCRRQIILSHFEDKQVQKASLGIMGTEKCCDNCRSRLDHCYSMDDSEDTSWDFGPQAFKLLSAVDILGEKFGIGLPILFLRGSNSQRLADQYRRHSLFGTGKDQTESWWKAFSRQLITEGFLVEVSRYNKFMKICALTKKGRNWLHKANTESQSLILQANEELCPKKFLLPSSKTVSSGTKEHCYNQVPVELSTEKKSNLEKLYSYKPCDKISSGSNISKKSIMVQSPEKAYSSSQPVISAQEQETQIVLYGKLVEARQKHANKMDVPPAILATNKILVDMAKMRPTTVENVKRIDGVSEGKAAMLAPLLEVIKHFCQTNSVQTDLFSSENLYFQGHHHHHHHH

SMILES | IC50 [1] [nM] | EC50 [2] [nM]
CCc1c(N2CCN(C(=O)c3cccc4ccoc34)[C@H]3CC[C@@H]32)c(=O)c2nn(-c3ccnc(OC)c3)nc2n1CC(=O)Nc1ccc(C(F)(F)F)cc1Cl [Compound I-119, 2-{6-[(1S,6S)-5-(1-benzofuran-7-carbonyl)-2,5-diazabicyclo[4.2.0]octan-2-yl]-5-ethyl-2-(2-methoxypyridin-4-yl)-7-oxo-2H,4H,7H-[1,2,3]triazolo[4,5-b]pyridin-4-yl}-N-[2-chloro-4-(trifluoromethyl)phenyl]acetamide] | 5 to 50 | > 5000
CCc1c(N2CCN(C(=O)c3cccc4c3OCC4)[C@H]3CC[C@@H]32)c(=O)c2nn(-c3ccnc(OC)c3)nc2n1CC(=O)Nc1ccc(C(F)(F)F)cc1Cl [Compound I-120, N-[2-chloro-4-(trifluoromethyl)phenyl]-2-{6-[(1S,6S)-5-(2,3-dihydro-1-benzofuran-7-carbonyl)-2,5-diazabicyclo[4.2.0]octan-2-yl]-5-ethyl-2-(2-methoxypyridin-4-yl)-7-oxo-2H,4H,7H-[1,2,3]triazolo[4,5-b]pyridin-4-yl}acetamide] | 5 to 50 | 500 to 2000
CCc1c(N2CCN(C(=O)c3c(OC)ncc(C)c3O)CC2)c(=O)c2nn(-c3ccnc(OC)c3)nc2n1CC(=O)NC1CC2(CCC2)C1 [Compound I-125, 2-{5-ethyl-6-[4-(4-hydroxy-2-methoxy-5-methylpyridine-3-carbonyl)piperazin-1-yl]-2-(2-methoxypyridin-4-yl)-7-oxo-2H,4H,7H-[1,2,3]triazolo[4,5-b]pyridin-4-yl}-N-{spiro[3.3]heptan-2-yl}acetamide] | 5 to 50 | 500 to 2000
CCc1c(N2CCN(C(=O)c3ncnc(C)c3O)[C@H]3CC[C@@H]32)c(=O)c2nn(-c3ccnc(OC)c3)nc2n1CC(=O)Nc1ccc(C(F)(F)F)cc1F [Compound I-126, 2-{5-ethyl-6-[(1S,6S)-5-(5-hydroxy-6-methylpyrimidine-4-carbonyl)-2,5-diazabicyclo[4.2.0]octan-2-yl]-2-(2-methoxypyridin-4-yl)-7-oxo-2H,4H,7H-[1,2,3]triazolo[4,5-b]pyridin-4-yl}-N-[2-fluoro-4-(trifluoromethyl)phenyl]acetamide] | ≤ 5 | ≤ 500
CCc1c(N2CCN(C(=O)c3ncnc(C)c3O)CC2)c(=O)c2nn(-c3ccccn3)nc2n1CC(=O)Nc1ccc(C(F)(F)F)cc1Cl [Compound I-127, N-[2-chloro-4-(trifluoromethyl)phenyl]-2-{5-ethyl-6-[4-(5-hydroxy-6-methylpyrimidine-4-carbonyl)piperazin-1-yl]-7-oxo-2-(pyridin-2-yl)-2H,4H,7H-[1,2,3]triazolo[4,5-b]pyridin-4-yl}acetamide] | ≤ 5 | ≤ 500
CCc1c(N2CCN(C(=O)c3c(OC)ncc(C)c3O)CC2)c(=O)c2nn(-c3ccnc(C)c3)nc2n1CC(=O)NC12CC(C(C)C)(C1)C2 [Compound I-130, 2-{5-ethyl-6-[4-(4-hydroxy-2-methoxy-5-methylpyridine-3-carbonyl)piperazin-1-yl]-2-(2-methylpyridin-4-yl)-7-oxo-2H,4H,7H-[1,2,3]triazolo[4,5-b]pyridin-4-yl}-N-[3-(propan-2-yl)bicyclo[1.1.1]pentan-1-yl]acetamide] | 5 to 50 | ≤ 500
CCc1c(N2CCN(C(=O)c3c(O)ccc4ncoc34)CC2)c(=O)c2nn(C3CC3)nc2n1CC(=O)Nc1ccc(C(F)(F)F)cc1Cl [Compound I-133, N-[2-chloro-4-(trifluoromethyl)phenyl]-2-{2-cyclopropyl-5-ethyl-6-[4-(6-hydroxy-1,3-benzoxazole-7-carbonyl)piperazin-1-yl]-7-oxo-2H,4H,7H-[1,2,3]triazolo[4,5-b]pyridin-4-yl}acetamide] | 5 to 50 | ≤ 500

Continued, values first:

IC50 [1] [nM] | EC50 [2] [nM] | SMILES
5 to 50 | 500 to 2000 | CCc1c(N2CCN(C(=O)c3c(OC)ncc(C)c3O)CC2)c(=O)c2nn(-c3ccnc(OC)c3)nc2n1CC(=O)NC12CC(CC(F)F)(C1)C2 [Compound I-121, N-[3-(2,2-difluoroethyl)bicyclo[1.1.1]pentan-1-yl]-2-{5-ethyl-6-[4-(4-hydroxy-2-methoxy-5-methylpyridine-3-carbonyl)piperazin-1-yl]-2-(2-methoxypyridin-4-yl)-7-oxo-2H,4H,7H-[1,2,3]triazolo[4,5-b]pyridin-4-yl}acetamide]
5 to 50 | 500 to 2000 | CCc1c(N2CCN(C(=O)c3c(OC)ncc(C)c3O)CC2)c(=O)c2nn(-c3ccnc(OC)c3)nc2n1CC(=O)NC12CC(C(C)(F)F)(C1)C2 [Compound I-122, N-[3-(1,1-difluoroethyl)bicyclo[1.1.1]pentan-1-yl]-2-{5-ethyl-6-[4-(4-hydroxy-2-methoxy-5-methylpyridine-3-carbonyl)piperazin-1-yl]-2-(2-methoxypyridin-4-yl)-7-oxo-2H,4H,7H-[1,2,3]triazolo[4,5-b]pyridin-4-yl}acetamide]
50 to 100 | > 5000 | CCc1c(N2CCN(C(=O)c3c(OC)ncc(C)c3O)CC2)c(=O)c2nn(-c3ccnc(OC)c3)nc2n1CC(=O)NC12CC(C3CCOC3)(C1)C2 (stereo not shown) [Compound I-123, 2-{5-ethyl-6-[4-(4-hydroxy-2-methoxy-5-methylpyridine-3-carbonyl)piperazin-1-yl]-2-(2-methoxypyridin-4-yl)-7-oxo-2H,4H,7H-[1,2,3]triazolo[4,5-b]pyridin-4-yl}-N-[3-(oxolan-3-yl)bicyclo[1.1.1]pentan-1-yl]acetamide]
> 500 | > 5000 | CCc1c(N2CCN(C(=O)c3c(OC)ncc(C)c3O)CC2)c(=O)c2nn(-c3ccnc(OC)c3)nc2n1CC(=O)NC12CC(N3CCCC3)(C1)C2 [Compound I-124, 2-{5-ethyl-6-[4-(4-hydroxy-2-methoxy-5-methylpyridine-3-carbonyl)piperazin-1-yl]-2-(2-methoxypyridin-4-yl)-7-oxo-2H,4H,7H-[1,2,3]triazolo[4,5-b]pyridin-4-yl}-N-[3-(pyrrolidin-1-yl)bicyclo[1.1.1]pentan-1-yl]acetamide]
5 to 50 | ≤ 500 | CCc1c(N2CCN(C(=O)c3c(OC)ncc(C)c3O)CC2)c(=O)c2nn(-c3ccnc(OC)c3)nc2n1CC(=O)NC12CC(C(F)(F)F)(C1)C2 [Compound I-128, 2-{5-ethyl-6-[4-(4-hydroxy-2-methoxy-5-methylpyridine-3-carbonyl)piperazin-1-yl]-2-(2-methoxypyridin-4-yl)-7-oxo-2H,4H,7H-[1,2,3]triazolo[4,5-b]pyridin-4-yl}-N-[3-(trifluoromethyl)bicyclo[1.1.1]pentan-1-yl]acetamide]
5 to 50 | ≤ 500 | CCc1c(N2CCN(C(=O)c3c(OC)ncc(C)c3O)CC2)c(=O)c2nn(-c3ccnc(OC)c3)nc2n1CC(=O)NC12CC(C3CC3)(C1)C2 [Compound I-129, N-{3-cyclopropylbicyclo[1.1.1]pentan-1-yl}-2-{5-ethyl-6-[4-(4-hydroxy-2-methoxy-5-methylpyridine-3-carbonyl)piperazin-1-yl]-2-(2-methoxypyridin-4-yl)-7-oxo-2H,4H,7H-[1,2,3]triazolo[4,5-b]pyridin-4-yl}acetamide]
5 to 50 | 500 to 2000 | CCc1c(N2CCN(C(=O)c3c(OC)ncc(C)c3O)CC2)c(=O)c2nn(-c3ccnc(OC)c3)nc2n1CC(=O)NC12CC(CC(F)(F)F)(C1)C2 [Compound I-131, 2-{5-ethyl-6-[4-(4-hydroxy-2-methoxy-5-methylpyridine-3-carbonyl)piperazin-1-yl]-2-(2-methoxypyridin-4-yl)-7-oxo-2H,4H,7H-[1,2,3]triazolo[4,5-b]pyridin-4-yl}-N-[3-(2,2,2-trifluoroethyl)bicyclo[1.1.1]pentan-1-yl]acetamide]
5 to 50 | 500 to 2000 | CCc1c(N2CCN(C(=O)c3ncnc(C)c3O)CC2)c(=O)c2nn(-c3ccncc3)nc2n1CC(=O)NC12CC(C(C)C)(C1)C2 [Compound I-134, 2-{5-ethyl-6-[4-(5-hydroxy-6-methylpyrimidine-4-carbonyl)piperazin-1-yl]-7-oxo-2-(pyridin-4-yl)-2H,4H,7H-[1,2,3]triazolo[4,5-b]pyridin-4-yl}-N-[3-(propan-2-yl)bicyclo[1.1.1]pentan-1-yl]acetamide]
5 to 50 | ≤ 500 | CCc1c(N2CCN(C(=O)c3ncnc(C)c3O)CC2)c(=O)c2nn(-c3ccnc(OC)c3)nc2n1CC(=O)NC12CC(C3CC3)(C1)C2 [Compound I-135, N-{3-cyclopropylbicyclo[1.1.1]pentan-1-yl}-2-{5-ethyl-6-[4-(5-hydroxy-6-methylpyrimidine-4-carbonyl)piperazin-1-yl]-2-(2-methoxypyridin-4-yl)-7-ox0-2H,4H,7H-[1,2,3]triazolo[4,5-b]pyridin-4-yl}acetamide]
5 to 50 | 2000 to 5000 | CCc1c(N2CCN(C(=O)c3c(O)cccc3OC(F)(F)F)CC2)c(=O)c2nn(-c3ccnc(OC)c3)nc2n1CC(=O)NC12CC(C3CC3)(C1)C2 [Compound I-136, N-{3-cyclopropylbicyclo[1.1.1]pentan-1-yl}-2-(5-ethyl-6-{4-[2-hydroxy-6-(trifluoromethoxy)benzoyl]piperazin-1-yl}-2-(2-methoxypyridin-4-yl)-7-oxo-2H,4H,7H-[1,2,3]triazolo[4,5-b]pyridin-4-yl)acetamide]
